Where two headings read alike, the source gives them in different places.
Key:
[1] = AVASTIN-loaded intraocular device, ocular tissue concentration by ELISA; format: in vivo, New Zealand white rabbits; conditions: 1 week post implantation of AVASTIN-loaded intraocular device
From the text: Three intraocular devices were implanted into eyes of New Zealand white rabbits under general anesthesia after lens extraction (phacoemulsification technique). Two of the devices were loaded with AVASTIN® and one was loaded with the contrast agent Galbumin as a control. Proper intraocular device position was verified by MRI as well as clinical examination.
The rabbits were sacrificed and the eyes are removed and assayed after 1 week post implantation. AVASTIN® was detected by ELISA in the retina and vitreous at concentrations of 24-48 mcg/mL, and was not present in the control rabbit eye.

[2] = rabbit, in vivo
[3] = rabbit, in vivo; remark: listed apart in the source
Protocol: The selected BDI-1 implants (from in-vitro release studies, FIG. 7) were sterilized, implanted in the capsular bag of rabbit's eyes. Two implants with different composition and dose were tested in-vivo in NZW rabbits to establish pharmacokinetics. Two rabbits were sacrificed at 2, 6, 10, 15 days and various tissue samples (aqueous humor, vitreous humor, IOL, iris/ciliary body and retina/choroid) were collected and samples were analyzed by a validated LC/MS/MS method.
A total of 8 animals (16 eyes) received the implant containing 120 μg of DXM.

**Q.** For bevacizumab [AVASTIN®], which “concentration in the retina and vitreous by ELISA” value [1] is on record?
**A.** The value was 24000 to 48000 ng/mL.

**Q.** For `C[C@@H]1C[C@H]2[C@@H]3CCC4=CC(=O)C=C[C@]4(C)[C@@]3(F)[C@@H](O)C[C@]2(C)[C@@]1(O)C(=O)CO` [dexamethasone], which “direction of dexamethasone flow from the endocapsular space” value [2] is on record?
**A.** Its value is “bidirectional from the endocapsular space into both the anterior and posterior chambers”.

**Q.** And the “direction of dexamethasone flow from the endocapsular space” value [3]?
**A.** Its value is “bidirectional from the endocapsular space into both the anterior and posterior chambers”.
